Measured values from patent publication US20260167927A1, “GLOMUS CELL-LIKE CELLS AND PRODUCTION METHOD THEREOF” (NATIONAL INSTITUTE OF ADVANCED INDUSTRIAL SCIENCE AND …, priority 2022, published 2026).

Tested on: glomus cell-like cells
Test: ATP production by glomus cell-like cells in response to hypoxic stimulation with ion channel inhibitors
Type: cell-based, human
Settings: for effect on ATP production in response to hypoxic stimulation: 2% O2, 10 to 30 minutes, vs KRB without inhibitor
Protocol: Glomus cell-like cells on days 16 to 19 of induction were used. With Krebs-Ringer buffer (KRB: 120 mM of NaCl, 5 mM of KCI, 25 mM of NaHCO3, 2.5 mM of CaCI2, 1.1 mM of MgCl2, 0.1% bovine serum albumin, 2.8 mM of glucose, pH 7.2), glomus cell-like cells were washed twice. After adding KRB, the cells were incubated in a hypoxic CO2 incubator (2% O2) for 10 to 30 minutes. The supernatant was collected, and then ATP was measured using the ATP Determination Kit (Thermo Fisher Scientific: A22066). Cells were lysed in RIPA buffer (FUJIFILM Wako Pure Chemical Corporation: 182-02451), and the total protein content was determined using a Pierce™ BCA Protein Assay Kit (Thermo Fisher Scientific: 23225). ATP measurement results were corrected according to the total protein content.
Using KRB containing the K^+ channel inhibitor tetraethylammonium chloride (FUJIFILM Wako Pure Chemical Corporation: 206-04501) (final concentration: 5 mM), the Ca^2+ channel inhibitor nifedipine (FUJIFILM Wako Pure Chemical Corporation: 141-05783) (final concentration: 5 μM), or the Na^+ channel inhibitor lidocaine (FUJIFILM Wako Pure Chemical Corporation: 120-02691) (final concentration: 1 μM), cells were subjected to hypoxic stimulation using the procedure described in (3-1) above, and the amount of ATP production was analyzed. KRB without ion channel inhibitors was used as a control to analyze ATP production similarly.

## CC[N+](CC)(CC)CC.[Cl-] [tetraethylammonium chloride]
Tetraethylammonium chloride 5 mM in KRB
  effect on ATP production in response to hypoxic stimulation: promoting effect

## apyrase
Apyrase (ATPase) 2 U/mL added, FIG. 11
  ATP detected after hypoxic stimulation: no ATP was detected

## CCN(CC)CC(=O)Nc1c(C)cccc1C [lidocaine, Lidocaine]
Lidocaine 1 μM in KRB
  effect on ATP production in response to hypoxic stimulation: inhibitory effect
